Measurements from article PMC7464537, “Jaceidin Flavonoid Isolated from Chiliadenus montanus Attenuates Tumor Progression in Mice via VEGF Inhibition: In Vivo and In Silico Studies” (Plants, 2020).

What was measured:
[1] = test system: breast cancer cell line (MCF-7); assay: SRB cytotoxicity assay, breast cancer cell line; format: cell-based; details: Homo sapiens, MCF7, 48 h incubation, triplicate, ±SD
Method: (§1) The cytotoxic activity of the isolated compounds was measured in vitro against a human liver cancer cell line (HEPG2), a human breast cancer cell line (MCF-7) and a human melanocyte (normal cell line) (HFB-4) in comparison to Doxorubicin, using sulforhodamine B (SRB) assay. Human tumor cell lines (MCF-7, HepG2) used in this study were obtained from the American Type Culture collection (ATCC, Manassas, VA, USA). The tumor cell lines were maintained at the National Cancer Institute, Cairo, Egypt, by serial sub culturing. Cells were seeded in 96-well microliter plates at initial concentration of (3 × 10^3 cell/well) in a fresh medium and left for 24 h to attach to the plates before treatment of the tested compounds. Tested compounds were dissolved in DMSO and diluted with saline to the appropriate volume. After 24 h, cells were incubated with the appropriate concentration ranges of drugs (0, 12.5, 25, 50, 100 µg/mL), the wells were diluted to 150 µL with fresh medium and incubation was continued for 48 h at 37 °C. Control cells were treated with vehicle alone. Three wells were used for each drug concentration. After 48 h incubation, the cells were fixed with 50 µL of cold 10% trichloroacetic acid for 1 h at 4 °C, washed 5 times with distilled water using (Automatic Washer Tecan, Heidelberg, Germany) and then stained for 30 min at room temperature with 50 µL 0.4% SRB dissolved in 1% acetic acid. The wells were then washed 4 times with 1% acetic acid. The plates were air dried and the dye was solubilized with 100 µL/well 10 mM tris base (pH = 10.5). The Optical density (O.D.) of each well was measured spectrophotometrically at 570 nm with an ELISA microplate reader (sunrise Tecan reader, Germany). The percentage of cell survival was calculated as follows:(1) Surviving fraction=O.D.(treated cells)/O.D.(control cells)
(§2) The relation between surviving fraction and compound concentration was plotted to get the survival curve for tumor cell line after the specified time.

[2] = test system: liver cancer cell line (HepG2); assay: SRB cytotoxicity assay, liver cancer cell line; format: cell-based; details: Homo sapiens, 48 h incubation, triplicate, ±SD
Method: as §1, §2

[3] = test system: human melanocyte (normal cell line) (HFB-4); assay: SRB cytotoxicity assay, normal cell line; format: cell-based; details: 48 h incubation, triplicate, ±SD
Method: as §1, §2

[4] = test system: Ehrlich's ascites carcinoma (EAC) solid tumors; assay: In vivo antitumor activity: tumor weight and histopathology of EAC solid tumors; set-up: species or system female Swiss albino mice; details: extract 200 mg/kg or jaceidin 50 mg/kg three times weekly
Excerpt: Female Swiss albino mice with original body weight of 20–26 g and age of 8–10 weeks was used in the current experiment and fixed housing conditions were maintained at a normal dark/light cycle. Mice were housed in groups of six in polyethylene cages where food and water were provided ad libitum. The Research Ethics Committee at the Faculty of Pharmacy, Suez Canal University (license number 201809RA1), approved the study of protocol. Ehrlich’s Ascites Carcinoma is commonly employed as a solid form and easy to grow in suspension, when injected in the peritoneal cavity of female mice. Mice carrying the EAC cell line were obtained from the Department of Tumor Biology at the National Cancer Institute (Cairo, Egypt). The viability of EAC cells was ensured employing Trypan blue dye exclusion method. Then, EAC cells suspension was prepared in sterile saline solution to get a final working suspension; each 0.1 mL of which contained 2.5 million of EAC cells. At the beginning of the experiment, mice were shaved at their back, and inoculated with 0.1 mL of the EAC suspension.
Seven days after inoculation with the tumor cells in all female mice, mice were randomly divided into three groups, ten mice in each. The different treatments were started as follows;
(§3) Groups 1: mice treated with saline (5 mL/kg). All therapies continued for 21 days. Group 2: mice treated with C. montanus extract 200 mg/kg three times weekly. Group 3: mice treated with Jaceidin 50 mg/kg three times weekly.
(§4) One day after the end of the experiment (day 21), mice were subjected to light ether anesthesia and sacrificed by cervical dislocation; blood samples were collected by cardiac puncture. Blood samples were maintained at room temperature for 30 min and centrifuged at 12,000× g for 10 min. Then, sera were separated and stored at −20 °C until used. An ELISA kit (Sun Red Biotechnology Company, Shanghai, China) was employed for estimating serum VEGF level according to the manufacturer’s protocol. The color intensity was measured at 450 nm using an automated ELISA reader (Europe S.A., Belgium). Tumor was dissected into two halves; the first half was kept at −20 °C to be used in estimating MDA and GSH levels. The second half was cut into small pieces, then fixed in 10% phosphate-buffered formalin for histopathological examination.
After fixation, samples were dehydrated in ascending grades of ethyl alcohol, cleared in xylol, embedded in paraffin wax, and then subjected to routine histopathological procedures. Sectioning was done at 5–7 µm thick followed by staining with Hematoxylin and Eosin (H&E). Digital imaging of representative areas was captured using image capture engine software (AMT V600.259) which attached to Olympus CX 41biocular microscope. Histopathological analysis of the digital images of solid tumor was performed by quantities the mitotic figures and tumor giant cells. For counting, ten sections from each experimental group were analyzed at scale bar 20 µm by using image J software that was developed by the National Institute of Health (Betheda, MD, USA). Histopathological examinations were evaluated blindly.

[5] = test system: vascular endothelial growth factor B (VEGF-B); assay: ELISA of serum VEGF level in EAC-bearing mice; format: in vivo, female Swiss albino mice; details: extract 200 mg/kg or jaceidin 50 mg/kg three times weekly
Method: as §3, §4

[6] = test system: GSH and MDA levels in tumor tissues; assay: ELISA of GSH and MDA levels in tumor homogenates; format: in vivo, female Swiss albino mice; details: extract 200 mg/kg or jaceidin 50 mg/kg three times weekly
Method: as §3, §4
Using a frozen sample, a part of tumor was weighted and homogenized as 10% (w/v) in phosphate-buffered saline using a Teflon homogenizer (Glass col homogenizer system, Vernon Hills, IL, USA). Homogenates were then centrifuged at 15,000× g for 10 min at 4 °C. After centrifugation, the supernatants were collected into 2 dry tubes and kept at −80 °C. The levels of MDA and GSH were determined in the tumor homogenates of […] using ELISA kits for MDA (Catalog No. MBS741034) and GSH (Catalogue Number: MBS026635) according to the manufacturer’s instructions.

[7] = EAC solid tumors in female mice, 21 days

Compound	IC50 [1] [µM]	IC50 [2] [µM]	IC50 [3] [µM]	also measured
C=C1CCC[C@]2(C)CCC(C(C)(C)O)C[C@@]12OO (stereo partly drawn) [Compound 2, 5α-hydroperoxy-β-eudesmol]	41.5 ± 0.55	39.7 ± 0.65	> 200	
CC(C)(O)[C@@]1(O)CC[C@]2(C)C(C1)[C@@](C)(O)CC[C@H]2O (stereo partly drawn) [Compound 6, 1β,4β,7β, 11-tetrahydroxyeudesmane]	33.2 ± 0.35	35.1 ± 0.6	> 200	
C=C(C)[C@]1(O)CC[C@]2(C)[C@H](O)CC[C@](C)(O)[C@@H]2C1 [Compound 5, Eudesm-11,13-ene-1β,4β,7α-triol]	38.5 ± 0.55	33.4 ± 0.49	> 200	
C=C(C)[C@@H]1CC[C@]2(C)CCC[C@](C)(O)[C@H]2C1 [Compound 1, Intermedeol]	45.6 ± 0.5	48.2 ± 0.3	> 200	
COc1cccc2c1C(=O)c1c(O)c3c(c(O)c1C2=O)C[C@@](O)(C(=O)CO)C[C@@H]3O[C@H]1C[C@H](N)[C@H](O)[C@H](C)O1 [Doxorubicin, reference compound]	4 ± 0.25	4.58 ± 0.47	14.7 ± 0.5	
COc1ccc(-c2oc3cc(O)cc(O)c3c(=O)c2OC)cc1OC [Compound 3, 5,7-dihydroxy-3,3’,4’-trimethoxyflavone]	10.7 ± 0.4	30.5 ± 0.61	> 200	
COc1cc(-c2oc3cc(O)c(OC)c(O)c3c(=O)c2OC)ccc1O [Compound 4, 5,7,4’-trihydroxy-3,6,3’-trimethoxyflavone]	9.3 ± 0.3	9.7 ± 0.26	> 200	mean tumor weight [4, 7]: 0.032 g; tumor weight decrease compared to tumor control [4, 7]: 96.4%; necrosis in the tumor tissues ([4]; H&E histopathology, mean ± SD, tumor control 3.46 ± 0.68): 1.63 ± 0.68; number of tumor giant cells in the tumor tissues ([4]; H&E histopathology, mean ± SD, tumor control 7.65 ± 2.48): 1.30 ± 1.08; number of mitotic figures in the tumor tissues ([4]; H&E histopathology, mean ± SD, tumor control 31.45 ± 5.46): 5.20 ± 2.35; mitotic figure decrease compared to tumor control ([4]; H&E histopathology): 83.47%; necrosis decrease compared to tumor control ([4]; H&E histopathology): 53.01%; tumor giant cell decrease compared to tumor control ([4]; H&E histopathology): 83%; serum VEGF decrease compared to tumor control [5]: 61.7%; serum VEGF levels ([5]; mean ± SD, tumor control 71.46 ± 1.88): 27.3 ± 2.82; GSH levels in tumor tissues ([6]; mean ± SD, tumor control 11.62 ± 1.96): 29.25 ± 3.36; MDA levels in the tumor tissues ([6]; mean ± SD, tumor control 15.18 ± 1.89): 4.25 ± 1.28; GSH increase compared to tumor control ([6]; tumor tissues): 2.5 folds; MDA decrease compared to tumor control ([6]; tumor tissues): 72%
